The record followed here is publication PMC9916969 (International Journal of Molecular Sciences, 2023).

Several values for one entry are separate records, joined by “and”; a condition that tells them apart may be missing. Identical values can stand only once.

Experiment [1] relates to porcine liver CES. Nature of the experiment: In vitro CES inhibition (4-NPA substrate). The experiment is classed as biochemical. Particulars: compound 20 µM, n.a. = not active. The gist of the method:
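Esterase sources were human erythrocyte AChE, equine serum BChE and porcine liver CES, with 4-NPA as CES substrate. Chromophore absorbance read on a plate reader. Compounds screened first at a single 20 µM concentration.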

Experiment [2] can be described thus: ABTS radical cation scavenging assay. Also noted: key to ABTS^•+ Scavenging Activity, TEAC: TEAC: ratio of compound slope to Trolox slope (Trolox equivalents). Particulars: 1 h incubation; for IC50: 50% reduction of ABTS radical cation; for ABTS^•+ Scavenging Activity, TEAC: Trolox equivalent, n.a. = not active. An outline of the steps:
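Compounds (0.5–100 µM, in DMSO) mixed with ABTS•+ working solution in ethanol (100 μM final), radical pre-formed from 7 mM ABTS plus 2.45 mM persulfate for 12–16 h in the dark. Absorbance decrease at 734 nm after 1 h at 30 °C. TEAC derived as slope ratio of absorbance-versus-concentration lines, compound versus Trolox.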

Experiment [3] addresses β-amyloid (1–42) (Aβ42) (Homo sapiens, UniProt P05067). Nature of the experiment: Inhibition of Aβ42 self-aggregation (thioflavin T). The format is biochemical. Particulars: Aβ42 50 µM; compound 100 µM; 24 h, 37 °C; thioflavin T; read-out: Inhibition of Aβ42 Self-Aggregation. The gist of the method: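 Aβ42 (HFIP-pretreated, 500 μM DMSO stock) at 50 μM final in 215 mM Na-phosphate pH 8.0 was incubated 24 h at 37 °C without stirring, with or without compounds at 100 µM. Then ThT was added (4 μM final, glycine-NaOH pH 8.5) and fluorescence read at 440/485 nm, in triplicate.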

Experiment [4] concerns the target T1, EeAChE PAS (Electrophorus electricus, UniProt O42275).
T1 construct: The enzyme was electric eel AChE (EeAChE type VI-S, lyophilized powder, Sigma-Aldrich); purchased Sigma-Aldrich type VI-S; host or cells: electric eel (tissue-derived)
The experiment is classed as binding. Particulars: compound 20 µM; EeAChE 7 µM; propidium iodide 8 µM. An outline of the steps:
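Compound displacement of propidium iodide (8 μM final, added for 15 min) from the peripheral anionic site of electric eel AChE (type VI-S) in Tris buffer. Fluorescence read at 530 nm excitation/600 nm emission, in triplicate. % displacement was calculated relative to AChE plus propidium without inhibitor.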

β-amyloid (1–42) (Aβ42), sequence (P05067 672-713 limits assumed): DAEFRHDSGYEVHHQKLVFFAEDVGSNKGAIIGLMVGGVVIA
T1 sequence (O42275 24-633): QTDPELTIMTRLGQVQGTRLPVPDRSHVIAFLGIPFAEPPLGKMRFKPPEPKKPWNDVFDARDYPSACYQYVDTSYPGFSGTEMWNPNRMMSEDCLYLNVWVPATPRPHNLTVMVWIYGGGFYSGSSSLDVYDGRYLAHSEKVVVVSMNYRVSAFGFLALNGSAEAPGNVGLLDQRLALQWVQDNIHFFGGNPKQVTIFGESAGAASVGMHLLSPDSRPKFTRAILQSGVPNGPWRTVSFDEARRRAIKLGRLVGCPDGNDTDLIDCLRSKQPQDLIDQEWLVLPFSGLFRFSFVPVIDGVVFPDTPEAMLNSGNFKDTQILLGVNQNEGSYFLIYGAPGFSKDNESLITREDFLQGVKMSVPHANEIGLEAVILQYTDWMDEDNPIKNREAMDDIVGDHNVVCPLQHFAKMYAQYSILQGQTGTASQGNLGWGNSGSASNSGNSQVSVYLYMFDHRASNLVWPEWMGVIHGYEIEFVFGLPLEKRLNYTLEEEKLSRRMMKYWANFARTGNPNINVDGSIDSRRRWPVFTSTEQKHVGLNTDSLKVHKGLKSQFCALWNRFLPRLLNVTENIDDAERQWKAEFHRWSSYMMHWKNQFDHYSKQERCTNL

For `O=C(NCCCCCCNc1c2c(nc3ccccc13)CCCC2)c1cc(F)c(F)cc1O` [7b], the “Inhibitory activity against CES, inhibition at 20 µM” value (from here on “Inhibitory activity against CES”) in experiment [1] was 7.1 ± 1.0%. Besides, in experiment [2], the IC50 was greater than 200 µM and the “ABTS^•+ Scavenging Activity, TEAC” value was 0.030 ± 0.001. Further, in experiment [3], the inhibition at 100 µM was 24.1 ± 2.1%. In addition, the “Propidium Displacement from EeAChE PAS” value in experiment [4] amounted to 12.2 ± 0.9%.
Turning to `Oc1ccccc1/C=N/CCCCCCCCNc1c2c(nc3ccccc13)CCCC2` [10c], the “Inhibitory activity against CES” value in experiment [1] is given as 23.0 ± 0.3%. Further, in experiment [2], the IC50 is 34.2 ± 1.8 µM and the “ABTS^•+ Scavenging Activity, TEAC” value worked out at 0.42 ± 0.04. Moreover, the inhibition at 100 µM in experiment [3] was determined as 80.1 ± 5.6%. Besides, the “Propidium Displacement from EeAChE PAS” value in experiment [4] is recorded as 19.8 ± 1.7%.
The matching figures for `O=C(NCCCCCCCCNc1c2c(nc3ccccc13)CCCC2)c1cc(F)c(F)cc1O` [7c]: 8.6 ± 0.7%, greater than 200 µM, 0.040 ± 0.002, 37.2 ± 2.9% and 13.6 ± 1.0%.
For `O=C(NCCCCCCNc1c2c(nc3ccccc13)CCCC2)c1ccccc1O` [5b], the “Inhibitory activity against CES” value in experiment [1] is 19.5 ± 0.9%. In experiment [2], the IC50 was 21.3 ± 1.5 µM; the “ABTS^•+ Scavenging Activity, TEAC” value is 0.93 and 0.90 ± 0.05. In experiment [3], the inhibition at 100 µM was found to be 41.5 ± 2.9%. For the same compound, the “Propidium Displacement from EeAChE PAS” value in experiment [4] was found to be 12.6 ± 1.0%.

Usually IC50 stands for the concentration that inhibits the measured activity by half. One may read the inhibition as the change of the read-out against control, counted positive when it falls.
